Tests used:
male Wistar rats = test: Evaluation of effect on urinary excretion of sugar in rats (Example 8); assay type: in vivo; conditions: rat, oral, 24 hours
Method: Five-week-old male Wistar rats (purchased from Charles River Japan, Inc.) were housed in metabolic cages for about one week prior to the experiment. A test compound was suspended in olive oil, so that solutions of the compound with concentrations of […] were prepared to have a dose of 5 ml/kg body weight of the rat. After the rats were not fed for 4 hours, the test compound was orally administered to the rats at a dosage of 10, 30 and 100 mg/kg at 11 a.m. Urine of the rat was collected for a given period of time from the time immediately after the administration to 24 hours after the administration, and the urine volume was measured. Subsequently, the glucose concentration in urine was determined by the glucose oxidase method and the daily amount of glucose excreted in urine per individual was calculated.
As the positive control compound, 3-(benzo[b]furan-5-yl)-2′,6′-dihydroxy-4′-methylpropiophenone 2′-O-(6-O-methoxycarbonyl-β-D-glucopyranoside) was used.

rat = conditions: oral administration, increase of sugar excreted in urine, decrease of blood sugar; cited from earlier work

COC(=O)OC[C@H]1O[C@@H](Oc2cc(C)cc(O)c2C(=O)CCc2ccc3occc3c2)[C@H](O)[C@@H](O)[C@@H]1O [Positive Control Compound, 3-(benzo[b]furan-5-yl)-2′,6′-dihydroxy-4′-methylpropiophenone 2′-O-(6-O-methoxycarbonyl-β-D-glucopyranoside)]
The amount of glucose excreted in urine (male Wistar rats; 10 mg/kg): 2 mg
The amount of glucose excreted in urine (male Wistar rats; 30 mg/kg): 78 mg
The amount of glucose excreted in urine (male Wistar rats; 100 mg/kg): 274 mg
dose needed to exhibit the efficacy (rat): 100 mg/kg

From patent US6908905B2, “N-substituted pyrazole-O-glycoside derivatives and therapeutic agent for diabetes containing the same” (Ajinomoto Co., Inc., priority 2001, dated 2005)
